Assay results taken from publication PMC9090415, “Discovery of small molecule inhibitors of Plasmodium falciparum apicoplast DNA polymerase” (Journal of Enzyme Inhibition and Medicinal Chemistry, 2022).

Biological target: P. falciparum apicoplast DNA polymerase (Pf-apPOL) (Plasmodium falciparum, UniProt Q8ILY1)
Test: Fluorescence-based high-throughput DNA polymerase assay (molecular beacon), primary screen and dose-response
Format: biochemical
Procedure, shortened: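 Single-point screening used 10 µM compound with 20 nM polymerase, 20 nM hairpin substrate and 6 µM dNTPs for 90 min at 25 °C. Confirmatory titrations (2.5–80 µM) followed fluorescence at three times, and IC50 was derived from a fit including a cooperativity term n.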

[1] = supplemental file 2, sheet IC50 nontoxic compounds; Pf-apPOL

Chain of P. falciparum apicoplast DNA polymerase (Pf-apPOL) (Q8ILY1 entry or part of it): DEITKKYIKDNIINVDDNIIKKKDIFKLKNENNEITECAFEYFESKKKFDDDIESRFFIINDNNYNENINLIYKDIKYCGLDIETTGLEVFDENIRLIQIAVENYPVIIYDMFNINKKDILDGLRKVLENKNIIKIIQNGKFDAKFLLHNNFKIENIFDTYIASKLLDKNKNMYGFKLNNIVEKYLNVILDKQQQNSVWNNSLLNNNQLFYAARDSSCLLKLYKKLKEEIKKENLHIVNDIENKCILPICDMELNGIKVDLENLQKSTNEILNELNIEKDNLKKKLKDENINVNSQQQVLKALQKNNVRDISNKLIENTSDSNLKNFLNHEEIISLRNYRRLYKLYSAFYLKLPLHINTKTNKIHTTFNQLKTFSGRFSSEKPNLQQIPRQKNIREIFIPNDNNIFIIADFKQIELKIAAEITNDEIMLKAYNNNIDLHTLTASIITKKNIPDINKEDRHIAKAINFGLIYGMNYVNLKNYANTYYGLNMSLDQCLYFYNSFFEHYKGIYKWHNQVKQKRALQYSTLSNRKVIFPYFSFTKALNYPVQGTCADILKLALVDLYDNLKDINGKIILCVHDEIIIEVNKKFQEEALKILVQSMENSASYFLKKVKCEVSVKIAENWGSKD

CCOc1nc2cccc(C(=O)OC(C)OC(=O)OC3CCCCC3)c2n1Cc1ccc(-c2ccccc2-c2nn[nH]n2)cc1 (centres unmarked) [Molecule 94, CCOc1nc2c(n1Cc1ccc(cc1)c1ccccc1c1n[nH]nn1)c(ccc2)C(=O)OC(OC(=O)OC1CCCCC1)C]
DNA Pol ('DNA Pol' of the 186 hits list (screen value); 90 min, 10 µM): 88 | % inhibition Apo pol 10' (DRC-1; 10'; conc 2.5): 6.803% | % inhibition Apo pol 10' (DRC-1; 10'; conc 5): 16.1591% | % inhibition Apo pol 10' (DRC-1; 10'; conc 10): 73.0339% | % inhibition Apo pol 10' (DRC-1; 10'; conc 20): 91.1% | % inhibition Apo pol 10' (DRC-1; 10'; conc 40): 96.7244% | % inhibition Apo pol 10' (DRC-1; 10'; conc 80): 98.4846% | % inhibition Apol 90' (DRC-1; 90'; conc 2.5): 4.826% | % inhibition Apol 90' (DRC-1; 90'; conc 5): 16.7075% | % inhibition Apol 90' (DRC-1; 90'; conc 10): 71.8878% | % inhibition Apol 90' (DRC-1; 90'; conc 20): 89.9299% | % inhibition Apol 90' (DRC-1; 90'; conc 40): 93.9408% | % inhibition Apol 90' (DRC-1; 90'; conc 80): 94.456% | % inhibition apPOL 180' (DRC-1; 180'; conc 2.5): 1.0757% | % inhibition apPOL 180' (DRC-1; 180'; conc 5): 11.5491% | % inhibition apPOL 180' (DRC-1; 180'; conc 10): 64.6519% | % inhibition apPOL 180' (DRC-1; 180'; conc 20): 87.4687% | % inhibition apPOL 180' (DRC-1; 180'; conc 40): 92.7393% | % inhibition apPOL 180' (DRC-1; 180'; conc 80): 93.1007% | % inhibition Apo pol 5' (DRC-2; 5'; conc 2.5): 8% | % inhibition Apo pol 5' (DRC-2; 5'; conc 5): 14% | % inhibition Apo pol 5' (DRC-2; 5'; conc 10): 46% | % inhibition Apo pol 5' (DRC-2; 5'; conc 20): 55% | % inhibition Apo pol 5' (DRC-2; 5'; conc 40): 61% | % inhibition Apo pol 5' (DRC-2; 5'; conc 80): 61% | % inhibition Apo pol 5' (DRC-2; 5'; concentration 5): 14% | % inhibition Apo pol 5' (DRC-2; 5'; concentration 40): 61% | % inhibition Apo pol 5' (DRC-2; 5'; concentration 80): 61% | % inhibition Apol 40' (DRC-2; 40'; conc 2.5): 11% | % inhibition Apol 40' (DRC-2; 40'; conc 5): 19% | % inhibition Apol 40' (DRC-2; 40'; conc 10): 59% | % inhibition Apol 40' (DRC-2; 40'; conc 20): 71% | % inhibition Apol 40' (DRC-2; 40'; conc 40): 74% | % inhibition Apol 40' (DRC-2; 40'; conc 80): 74% | % inhibition Apol 40' (DRC-2; 40'; concentration 5): 19% | % inhibition Apol 40' (DRC-2; 40'; concentration 10): 59% | % inhibition Apol 40' (DRC-2; 40'; concentration 40): 74% | % inhibition Apol 40' (DRC-2; 40'; concentration 80): 74% | % inhibition ApPOL 90' (DRC-2; 90'; conc 2.5): 9% | % inhibition ApPOL 90' (DRC-2; 90'; conc 5): 19% | % inhibition ApPOL 90' (DRC-2; 90'; conc 10): 59% | % inhibition ApPOL 90' (DRC-2; 90'; conc 20): 73% | % inhibition ApPOL 90' (DRC-2; 90'; conc 40): 77% | % inhibition ApPOL 90' (DRC-2; 90'; conc 80): 77% | % inhibition ApPOL 90' (DRC-2; 90'; concentration 5): 19% | % inhibition ApPOL 90' (DRC-2; 90'; concentration 10): 59% | % inhibition ApPOL 90' (DRC-2; 90'; concentration 40): 77% | % inhibition ApPOL 90' (DRC-2; 90'; concentration 80): 77% | % inhibition apPOL 180' (DRC-2; 180'; conc 2.5): 4.45% | % inhibition apPOL 180' (DRC-2; 180'; conc 5): 14% | % inhibition apPOL 180' (DRC-2; 180'; conc 10): 53% | % inhibition apPOL 180' (DRC-2; 180'; conc 20): 69% | % inhibition apPOL 180' (DRC-2; 180'; conc 40): 75% | % inhibition apPOL 180' (DRC-2; 180'; conc 80): 75% | % inhibition apPOL 180' (DRC-2; 180'; concentration 5): 14% | % inhibition apPOL 180' (DRC-2; 180'; concentration 40): 75% | % inhibition apPOL 180' (DRC-2; 180'; concentration 80): 75% | DNA Pol (primary screen value, "DNA Pol"; 90 min, 10 µM): 88

O=C(Cn1ccc2c(=O)[nH]ccc21)Nc1ccc(Cl)cc1 [Molecule 36]
IC50 [1]: 12.8 µM

COc1ccc(-c2cc3nc4c(c(=O)n3[nH]2)CCN(C(=O)CCc2ccccc2)C4)cc1 [Molecule 17]
IC50 [1]: 7.1 µM

O=[N+]([O-])c1cc2c(cc1CN1CCCCCC1)OCO2 [KU0004987]
DNA Pol ('DNA Pol'; screening value, unit not given; 90 min, 10 µM): 33 | % inhibition Apo pol 10' (DRC-1; 10'; concentration 2.5): 6.817% | % inhibition Apo pol 10' (DRC-1; 10'; concentration 5): 8.194% | % inhibition Apo pol 10' (DRC-1; 10'; concentration 10): 20.8655% | % inhibition Apo pol 10' (DRC-1; 10'; concentration 20): 39.2503% | % inhibition Apo pol 10' (DRC-1; 10'; concentration 40): 59.1088% | % inhibition Apo pol 10' (DRC-1; 10'; concentration 80): 75.1762% | % inhibition Apol 90' (DRC-1; 90'; concentration 2.5): 1.395% | % inhibition Apol 90' (DRC-1; 90'; concentration 5): -0.8625% | % inhibition Apol 90' (DRC-1; 90'; concentration 10): 9.436% | % inhibition Apol 90' (DRC-1; 90'; concentration 20): 21.3205% | % inhibition Apol 90' (DRC-1; 90'; concentration 40): 39.3126% | % inhibition Apol 90' (DRC-1; 90'; concentration 80): 55.7488% | % inhibition apPOL 180' (DRC-1; 180'; concentration 2.5): -4.392% | % inhibition apPOL 180' (DRC-1; 180'; concentration 5): -7.266% | % inhibition apPOL 180' (DRC-1; 180'; concentration 10): 1.794% | % inhibition apPOL 180' (DRC-1; 180'; concentration 20): 10.6731% | % inhibition apPOL 180' (DRC-1; 180'; concentration 40): 27.0699% | % inhibition apPOL 180' (DRC-1; 180'; concentration 80): 43.7361% | % inhibition Apo pol 5' (DRC-2, 5', concentration 2.5): 17% | % inhibition Apo pol 5' (DRC-2, 5', concentration 5): 20% | % inhibition Apo pol 5' (DRC-2, 5', concentration 10): 32% | % inhibition Apo pol 5' (DRC-2, 5', concentration 20): 39% | % inhibition Apo pol 5' (DRC-2, 5', concentration 40): 46% | % inhibition Apo pol 5' (DRC-2, 5', concentration 80): 49% | % inhibition Apol 40' (DRC-2, 40', concentration 2.5): 13% | % inhibition Apol 40' (DRC-2, 40', concentration 5): 15% | % inhibition Apol 40' (DRC-2, 40', concentration 10): 22% | % inhibition Apol 40' (DRC-2, 40', concentration 20): 29% | % inhibition Apol 40' (DRC-2, 40', concentration 40): 39% | % inhibition Apol 40' (DRC-2, 40', concentration 80): 49% | % inhibition ApPOL 90' (DRC-2, 90', concentration 2.5): 9% | % inhibition ApPOL 90' (DRC-2, 90', concentration 5): 9% | % inhibition ApPOL 90' (DRC-2, 90', concentration 10): 16% | % inhibition ApPOL 90' (DRC-2, 90', concentration 20): 23% | % inhibition ApPOL 90' (DRC-2, 90', concentration 40): 33% | % inhibition ApPOL 90' (DRC-2, 90', concentration 80): 45% | % inhibition apPOL 180' (DRC-2, 180', concentration 2.5): 0.644% | % inhibition apPOL 180' (DRC-2, 180', concentration 5): 0.589% | % inhibition apPOL 180' (DRC-2, 180', concentration 10): 6% | % inhibition apPOL 180' (DRC-2, 180', concentration 20): 10% | % inhibition apPOL 180' (DRC-2, 180', concentration 40): 22% | % inhibition apPOL 180' (DRC-2, 180', concentration 80): 36% | % inhibition ApPOL 90' (conc 2.5 (unit not given); 90'; DRC-2): 9% | % inhibition ApPOL 90' (conc 5 (unit not given); 90'; DRC-2): 9% | % inhibition Apol 40' (conc 10 (unit not given); 40'; DRC-2): 22% | % inhibition Apo pol 5' (conc 20 (unit not given); 5'; DRC-2): 39% | % inhibition Apol 40' (conc 40 (unit not given); 40'; DRC-2): 39% | % inhibition apPOL 180' (conc 40 (unit not given); 180'; DRC-2): 22% | % inhibition Apo pol 5' (conc 80 (unit not given); 5'; DRC-2): 49% | % inhibition Apol 40' (conc 80 (unit not given); 40'; DRC-2): 49% | DNA Pol (primary screen hit value, DNA Pol (186 hits); 90 min, 10 µM): 33

Cc1ncc(CSc2nc(C(C)(C)C)cs2)c(CO)c1O [KU0264007]
DNA Pol (186 hits, value of the hit list (primary screen); unit not given; 90 min, 10 µM): 70 | % inhibition Apo pol 10' (DRC-1; 10'; concentration 2.5): 0.8986% | % inhibition Apo pol 10' (DRC-1; 10'; concentration 5): 5.699% | % inhibition Apo pol 10' (DRC-1; 10'; concentration 10): 22.1813% | % inhibition Apo pol 10' (DRC-1; 10'; concentration 20): 37.8368% | % inhibition Apo pol 10' (DRC-1; 10'; concentration 40): 57.9296% | % inhibition Apo pol 10' (DRC-1; 10'; concentration 80): 69.8809% | % inhibition Apol 90' (DRC-1; 90'; concentration 2.5): -0.5136% | % inhibition Apol 90' (DRC-1; 90'; concentration 5): -0.3111% | % inhibition Apol 90' (DRC-1; 90'; concentration 10): 8.991% | % inhibition Apol 90' (DRC-1; 90'; concentration 20): 19.9803% | % inhibition Apol 90' (DRC-1; 90'; concentration 40): 38.5024% | % inhibition Apol 90' (DRC-1; 90'; concentration 80): 54.4417% | % inhibition apPOL 180' (DRC-1; 180'; concentration 2.5): -1.351% | % inhibition apPOL 180' (DRC-1; 180'; concentration 5): -5.176% | % inhibition apPOL 180' (DRC-1; 180'; concentration 10): 0.78% | % inhibition apPOL 180' (DRC-1; 180'; concentration 20): 8.562% | % inhibition apPOL 180' (DRC-1; 180'; concentration 40): 22.9628% | % inhibition apPOL 180' (DRC-1; 180'; concentration 80): 39.37% | % inhibition Apo pol 5' (DRC-2, 5', concentration 2.5): 6.56% | % inhibition Apo pol 5' (DRC-2, 5', concentration 5): 10% | % inhibition Apo pol 5' (DRC-2, 5', concentration 10): 24% | % inhibition Apo pol 5' (DRC-2, 5', concentration 20): 37% | % inhibition Apo pol 5' (DRC-2, 5', concentration 40): 45% | % inhibition Apo pol 5' (DRC-2, 5', concentration 80): 50% | % inhibition Apol 40' (DRC-2, 40', concentration 2.5): 4% | % inhibition Apol 40' (DRC-2, 40', concentration 5): 6.47% | % inhibition Apol 40' (DRC-2, 40', concentration 10): 20% | % inhibition Apol 40' (DRC-2, 40', concentration 20): 35% | % inhibition Apol 40' (DRC-2, 40', concentration 40): 47% | % inhibition Apol 40' (DRC-2, 40', concentration 80): 61% | % inhibition ApPOL 90' (DRC-2, 90', concentration 2.5): 1.8% | % inhibition ApPOL 90' (DRC-2, 90', concentration 5): 2.55% | % inhibition ApPOL 90' (DRC-2, 90', concentration 10): 14% | % inhibition ApPOL 90' (DRC-2, 90', concentration 20): 28% | % inhibition ApPOL 90' (DRC-2, 90', concentration 40): 43% | % inhibition ApPOL 90' (DRC-2, 90', concentration 80): 62% | % inhibition apPOL 180' (DRC-2, 180', concentration 2.5): -3% | % inhibition apPOL 180' (DRC-2, 180', concentration 5): -4.6% | % inhibition apPOL 180' (DRC-2, 180', concentration 10): 2.58% | % inhibition apPOL 180' (DRC-2, 180', concentration 20): 14% | % inhibition apPOL 180' (DRC-2, 180', concentration 40): 30% | % inhibition apPOL 180' (DRC-2, 180', concentration 80): 58% | % inhibition ApPOL 90' (DRC-2; 90'; concentration 10): 14% | % inhibition apPOL 180' (DRC-2; 180'; concentration 20): 14% | DNA Pol (primary screen value, 'DNA Pol' only; 90 min, 10 µM): 70
